# Molecular target: T1, endothelial lipase (EL) (Homo sapiens, UniProt Q9Y5X9)
# T1 construct: made in house; host or cells: recombinant CHO or HEK293 cell lines; concentrated conditioned medium used as enzyme solution
# T1 sequence (Q9Y5X9 21-500): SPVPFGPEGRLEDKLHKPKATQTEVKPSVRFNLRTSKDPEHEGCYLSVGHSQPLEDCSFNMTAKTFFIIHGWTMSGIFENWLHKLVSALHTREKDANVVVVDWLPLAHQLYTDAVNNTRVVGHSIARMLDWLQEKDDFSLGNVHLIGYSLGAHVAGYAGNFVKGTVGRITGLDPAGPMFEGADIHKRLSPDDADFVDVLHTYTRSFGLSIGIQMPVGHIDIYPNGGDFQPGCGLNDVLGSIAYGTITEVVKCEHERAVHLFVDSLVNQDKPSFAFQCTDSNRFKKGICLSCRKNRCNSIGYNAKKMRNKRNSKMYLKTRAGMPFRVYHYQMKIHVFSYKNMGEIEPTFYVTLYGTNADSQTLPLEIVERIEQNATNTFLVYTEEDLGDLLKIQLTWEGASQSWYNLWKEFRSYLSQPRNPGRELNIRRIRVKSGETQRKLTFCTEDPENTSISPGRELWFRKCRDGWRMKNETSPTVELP
# Assay: EL inhibition assay (endothelial lipase activity, fluorescent Bodipy phospholipid substrate)
# Assay type: biochemical
# Settings: 37° C., 90 minutes; enzyme from conditioned medium of recombinant cell lines (CHO, HEK293)
# Description: The activity of the compounds of the invention of the formula I was tested in the following enzyme assay system: […]
# EL is released as secretory protein in high concentration into cell culture medium (conditioned medium) by recombinant cell lines (CHO, HEK293). This is employed as enzyme solution after concentration.
# The phospholipase-specific substrate 1,2-bis(4,4-difluoro-5,7-dimethyl-4-bora-3a,4a-diaza-s-indacene-3-undecanoyl)-sn-glycero-3-phosphocholine, (manufacturer Molecular Probes) is used to characterize the enzymatic activity of endothelial lipase and the effect of inhibitors. Hydrolysis of the A1 ester linkage of this phospholipid by the enzyme liberates a fatty acid labeled by the fluorescent dye Bodipy which can be detected after separation by thin-layer chromatography on an HPTLC plate (silica gel 60, Merck) or directly in the reaction vessel by measuring the fluorescence.
# The substrate solution is prepared by dissolving 100 μg of 1,2-bis(4,4-difluoro-5,7-dimethyl-4-bora-3a,4a-diaza-s-indacene-3-undecanoyl)-sn-glycero-3-phosphocholine (manufacturer Molecular Probes) in 100 μl DMSO and taking it up in 2.4 mg of tripalmitin (Sigma) in 393 μl chloroform which contains 20 mg/ml DOP-choline (1,2-dioleoyl-sn-glycero-3-phosphocholine). 39.3 μl of this lipid mixture are transferred into a fresh reaction vessel and the solvent is evaporated. The lipid mixture is dissolved in 4 ml of 200 mM TRIS-HCl, 150 mM sodium chloride, pH=7.4, by sonication twice. The subsequent enzymic reaction takes place at 37° C. for 90 minutes. For this purpose, 20 μl of the substrate solution are incubated with 2 μl of inhibitor of appropriate concentration (dissolved in 10% DMSO, 10% strength DMSO solution is used as control) and 2 μl of enzyme solution (conditioned medium). Then 4 μl of the assay mixture are loaded onto an HPTLC plate (silica gel 60, Merck), and the liberated fluorescent dye is separated for detection with an eluent (diethyl ether:petroleum benzine:acetic acid [78:22:1]). After evaporation of the eluent, the plate is read in a fluorescence scanner. An increased release of the fluorescent dye in the uninhibited reaction is to be observed as a measure of the enzymic activity.
# The enzymatic activity is reduced as a function of the inhibitor concentration used, and the inhibitor concentration at which a half-maximum enzymic activity is observed is called IC50.
row,Structure (SMILES),IC50
1,Cc1ccc(CNC(=O)n2oc(=O)c(C(C)C)c2C)cc1C [Example 16],0.004 µM
2,Cc1ccc(CNC(=O)n2oc(=O)c3c2CCCC3)cc1 [Example 26],0.035 µM
3,Cc1c(C(C)C)c(=O)on1C(=O)NCc1cc2ccccc2s1 [Example 8],3.2 µM
4,Cc1cccc(CNC(=O)n2oc(=O)c3c2CCCC3)c1 [Example 40],0.053 µM
5,O=C(N[C@H]1CCc2ccccc21)n1oc(=O)cc1C1CC1 [Example 44],0.5 µM
6,Cc1ccc(CNC(=O)n2oc(=O)c(C(C)C)c2C)cc1 [Example 7],0.9 µM
7,Cc1ccccc1CNC(=O)n1oc(=O)c(C(C)C)c1C [Example 6],0.028 µM
8,Cc1cccc(C)c1CNC(=O)n1oc(=O)c2c1CCCC2 [Example 39],0.001 µM
9,Cc1ccc(CNC(=O)n2oc(=O)c3c2CCCC3)cc1C [Example 25],0.009 µM
10,Cc1c(C(C)C)c(=O)on1C(=O)NC1CCc2ccccc21 (stereo not drawn) [Example 10],0.06 µM
11,Cc1c(C)n(C(=O)NC2CCc3ccccc32)oc1=O (stereo not drawn) [Example 31],0.1 µM
12,Cc1c(C(C)C)c(=O)on1C(=O)NCc1cccs1 [Example 18],14.1 µM

# Source: patent publication US9029400B2, “5-oxoisoxazoles as inhibitors of lipases and phospholipases” (Sanofi, priority 2007, dated 2015)
